# Measured values from patent publication US20190290671A1, “HYPOLIPIDEMIC EFFECTS OF COMPOSITIONS COMPRISING BETA-GLUCOGALLIN” (priority 2018, published 2019).
# Test: body weight of high fat diet fed rats
# Type: in vivo, Albino Rat (Wistar)
# Conditions: HFD + 3 mg/kgbw
# Procedure: Performance of the Test • Feed: The animals were fed with Normal diet (9 kcal/day) and High fat diet (50 kcal/day) throughout the acclimatization and experimental period. The normal diet and High Fat diet were prepared as follows.
# Body weight of the animals was recorded in 0th, 15th, 25th, 40th, 60th and 84th day of experimental period. At 0th day, 1 ml Tail blood was collected from each animal of all the groups and serum was separated. At the end of the experimental period (84th day), the animals were sacrificed by cervical dislocation. Blood was collected and serum was separated by centrifugation and used for the analysis of biochemical parameters.
# The test item was administered through oral route by gavage.
# Experimental Methods • Measurement of Body weight • Estimation of Cholesterol (CHOD/POD Method) • Estimation of Triglycerides (GPO/POD Method) • Estimation of HDL Cholesterol (HDL Cholesterol Direct Reagent Kit, Beacon) • Determination of LDL Cholesterol (LDL Cholesterol Direct Reagent Kit, Beacon)
smiles,measurement,setting,value
"CC(C)c1c(C(=O)Nc2ccccc2)c(-c2ccccc2)c(-c2ccc(F)cc2)n1CC[C@@H](O)C[C@@H](O)CC(=O)O [STATIN, Atrovastin]",Mean Body Weight,0th Day,108.33 ± 6.83 g
same,Mean Body Weight,15th Day,127.50 ± 6.90 g
same,Mean Body Weight,25th Day,139.16 ± 5.84 g
same,Mean Body Weight,40th Day,155.83 ± 7.35 g
same,Mean Body Weight,60th Day,165.83 ± 9.70 g
same,Mean Body Weight,84th Day,172.50 ± 9.35 g
